Data set [1] deals with complement alternative pathway (AP) activity. Briefly: MAD study: ex vivo serum AP hemolysis activity and PK-PD analysis. It counts as in vivo, human. As to conditions: Homo sapiens; sigmoidal model, multiple ascending dose, ex-vivo AP hemolysis, FIG. 12; read-out: modeled IC90 drug plasma concentration (90% inhibition level). As to the method:
Ex vivo serum AP hemolysis assays were conducted in 96-well microtiter plates divided into two parts, one for hemolysis and the other for serum background color subtraction. Briefly, a suspension of rabbit red blood cells (RBCs) was centrifuged at 800×g at 4° C. for 3 minutes and the supernatant was removed to get rid of the RBC debris. The RBC cell pellet was re-suspended gently with pre-chilled gelatin veronal buffer (GVB0) containing 10 mM MgEGTA to a density of 5×10^8 cells/mL. Other controls including buffer, spontaneous rabbit RBC lysis, 100% RBC lysis (in water), and normal serum control were set up alongside the test samples as well. Serum was placed in a 37° C. water-bath until mostly thawed and immediately transferred to ice bath. 20% serum was prepared with GVB0-MgEGTA buffer and kept at ice bath before testing. Reactions were carried out in a 96 well plate by mixing 50 μl of 20% serum with equal volume of GVB0-MgEGTA buffer and then quickly adding 20 μl of RBC suspension. The plate was shaken on a microtiter plate shaker for 5 seconds and then incubated at 37° C. for 30 minutes. Halfway during the incubation period, the plate was shaken for another 5 seconds as described above. At the end of the incubation, the plate was centrifuged at 800×g at 4° C. for 3 minutes to pellet the un-lysed rabbit RBCs. 80 μl of supernatant was removed carefully from all wells and transferred to a clear flat-bottom microtiter plate for the measurement of optical absorbance at 405 nm (A405) in a Molecular Devices Spectramax Plus plate reader. AP hemolysis in each well was calculated relative to the activity of the NHS reference sample formulas as follows: Hemolysis (%)=((Hm−Bk)−(Sp−Bf))/((NH−BkNH)−(Sp−Bf))×100%
where Hm=A405 in the hemolysis well, Bk=A405 in the corresponding background well, Sp=mean A405 in the spontaneous hemolysis wells, Bf=mean A405 in the buffer alone wells, NH=mean A405 in the reference NHS wells, and BkNH=mean A405 in the corresponding background wells.
The PK-PD relationship was evaluated using time-matched plasma Compound 1 concentrations and serum AP inhibition values by non-linear regression with GraphPad Prism (La Jolla, CA) using the following two models: • 1. The simple Emax model to determine the 50% effective concentration (EC50): Y=E0+Emax×X/(EC50+X) where X=plasma Compound 1 concentration, Y=percent inhibition in the corresponding serum sample, E0=0% inhibition (pre-dose AP activity), and Emax=100% inhibition. • 2. The four-parameter sigmoidal model to determine EC50 and the 90% effective concentration (EC90): Y=E0+(Emax−E0)/(1+10^((Log EC50−X)×HillSlope)) where X, Y, E0, and Emax are defined as above (Emax model) and HillSlope=the slope factor or Hill slope. Pharmacodynamic and Pharmacokinetic Results AP Activity Measured with AP Hemolysis
A multiple ascending dose (MAD) study of Compound 1 with two additional single-dose cohorts was also completed. […] Secondary objectives included evaluation of the pharmacokinetic (PK) profile and the relationship between Compound 1 PK and pharmacodynamic (PD) characteristics, that is, the inhibition of complement alternative pathway (AP) activity (PK/PD). In the MAD study, multiple-dose pharmacokinetics and pharmacodynamics of Compound 1 were evaluated in four dose groups administered Compound 1 (40, 80, 120 and 200 mg BID) in the fasted state for 14-days (Table 3). Eight subjects received active drug in each group; eight subjects received placebo in the first dose group (40 mg) and two subjects received placebo in each of the other three dose groups. Two additional cohorts were administered Compound 1 at single doses of 240 mg (fasted subjects) and 120 mg (fed subjects) (Table 3). The two single-dose cohorts each comprised six subjects receiving active drug and two subjects receiving placebo. […]

Data set [2] is described as follows: Compound 2 administered to humans (diurnal metabolic pattern). It counts as in vivo, human. The text has this:
This could not have been predicted prior to human administration of the drug.

Values after ≈ are worked out from the molar mass of the structure shown.

With `CC(=O)c1nn(CC(=O)N2C[C@H](F)C[C@H]2C(=O)Nc2cccc(Br)n2)c2ccc(-c3cnc(C)nc3)cc12` [Danicopan, reference compound], the IC90 in data set [1] was determined as 0.235 µg/mL (≈ 0.405 µM).

On to `CC(=O)c1nn(CC(=O)N2C[C@H](F)C[C@H]2C(=O)Nc2cccc(Br)n2)c2ccc(-c3cnc(C)nc3)cc12` [Compound 2, (2S,4R)-1-(2-(3-acetyl-5-(2-methylpyrimidin-5-yl)-1H-indazol-1-yl)acetyl)-N-(6-bromopyridin-2-yl)-4-fluoropyrrolidine-2-carboxamide], for which the diurnal metabolic pattern result in data set [2] is “does not exhibit a diurnal metabolic pattern”.

For the origin of these results see patent US12239645B2, “Targeted dosing for the treatment of complement mediated disorders” (Achillion Pharmaceuticals, Inc., priority 2018, dated 2025).
